Data from patent publication US9849135B2, “USP14 inhibitors for treating or preventing viral infections” (priority 2013, dated 2017).
Where two headings read alike, the source gives them in different places.

Tests used:
[1] = system: CHIKV (LR2006-OPY1); assay type: cell-based, Chikungunya virus
[2] = system: WNV (WNO2-1956); assay type: cell-based, West Nile virus
[3] = system: LACV (LAC74-32813); assay type: cell-based, La Crosse virus
[4] = system: DENV2; assay type: cell-based, Dengue virus
[5] = system: yellow fever virus (YFV, 17D vaccine strain); assay type: cell-based
[6] = system: DENV2 (New Guinea C strain); assay type: cell-based, Dengue virus; conditions: 100 μM IU1; preincubated cells

For `Cc1cc(C(=O)CN2CCCC2)c(C)n1-c1ccc(F)cc1` [IU1, 1-(1-(4-fluorophenyl)-2,5-dimethyl-1H-pyrrol-3-yl)-2-(pyrrolidin-1-yl)ethanone], the “effect on CHIKV replication” value [1] was “negligible or non-existent”, the WNV titer reduction [2] was 3-5 fold and the “WNV titer versus without the drug” value [2] was “significantly higher”. For the same compound, the “plaques in plaque assay (WNV)” value [2] was “no plaques were observed”, the LACV replication reduction [3] was 3 fold and the “titer, % of maximum” value ([4]; 75 μM IU1, post-infection addition) was 37%. The “titer, % of maximum” value ([4]; 100 μM IU1, post-infection addition) was 0.5%, the YFV titer reduction [5] was 3-5 fold and the “plaques in plaque assay” value [6] was “No plaques were observed”.
